{
  "source": "paper PMC9640540",
  "about": "“An LH1–RC photocomplex from an extremophilic phototroph provides insight into origins of two photosynthesis proteins” (Communications Biology, 2022)",
  "molecular_target": "T1, reaction center (RC) of the LH1–RC complex (Rhodopila globiformis, UniProt A0A2S6NEG7+A0A2S6NEP5)",
  "T1 construct": "gene CCS01_15140; native LH1-RC core complex purified from chromatophores (LDAO, then DDM); closed LH1 ring; with Reaction center protein H chain; Photosynthetic reaction center cytochrome c subunit",
  "T1 sequence (A0A2S6NEG7 1-275)": "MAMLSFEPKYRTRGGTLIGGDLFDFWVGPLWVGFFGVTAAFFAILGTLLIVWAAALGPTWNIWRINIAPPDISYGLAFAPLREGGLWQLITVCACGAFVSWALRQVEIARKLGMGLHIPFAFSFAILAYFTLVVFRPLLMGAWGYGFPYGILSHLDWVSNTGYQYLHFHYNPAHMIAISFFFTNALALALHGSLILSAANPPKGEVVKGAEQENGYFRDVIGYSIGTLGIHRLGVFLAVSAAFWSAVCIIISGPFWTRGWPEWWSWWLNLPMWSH",
  "T1 sequence (A0A2S6NEP5 1-326)": "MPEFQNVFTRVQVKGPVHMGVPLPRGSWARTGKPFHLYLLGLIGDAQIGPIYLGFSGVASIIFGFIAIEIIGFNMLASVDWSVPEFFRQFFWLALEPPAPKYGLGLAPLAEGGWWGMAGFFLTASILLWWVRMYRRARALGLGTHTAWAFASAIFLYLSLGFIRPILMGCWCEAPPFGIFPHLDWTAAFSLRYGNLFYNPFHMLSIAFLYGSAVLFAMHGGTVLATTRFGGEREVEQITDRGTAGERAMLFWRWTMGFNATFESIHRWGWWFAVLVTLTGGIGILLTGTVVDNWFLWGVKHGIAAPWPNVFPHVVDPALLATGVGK",
  "T1 sequence (A0A2S6MZS1 1-258 partner)": "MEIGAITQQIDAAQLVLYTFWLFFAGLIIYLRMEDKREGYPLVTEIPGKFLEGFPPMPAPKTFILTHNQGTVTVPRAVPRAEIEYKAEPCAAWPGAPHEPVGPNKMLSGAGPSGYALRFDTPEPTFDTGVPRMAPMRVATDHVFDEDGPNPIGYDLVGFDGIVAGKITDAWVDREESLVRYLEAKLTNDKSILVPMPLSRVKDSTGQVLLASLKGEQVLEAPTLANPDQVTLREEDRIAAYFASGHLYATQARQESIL",
  "T1 sequence (A0A2S6NEK5 1-344 partner)": "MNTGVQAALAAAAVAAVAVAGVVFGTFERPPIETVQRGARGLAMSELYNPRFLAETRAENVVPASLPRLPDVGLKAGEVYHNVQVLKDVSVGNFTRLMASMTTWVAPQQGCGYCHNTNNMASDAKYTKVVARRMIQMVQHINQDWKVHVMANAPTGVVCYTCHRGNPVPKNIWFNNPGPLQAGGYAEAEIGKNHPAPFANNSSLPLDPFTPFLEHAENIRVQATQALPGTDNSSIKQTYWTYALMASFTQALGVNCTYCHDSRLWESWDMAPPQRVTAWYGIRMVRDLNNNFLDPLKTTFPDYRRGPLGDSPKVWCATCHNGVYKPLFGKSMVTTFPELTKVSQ",
  "experiment": "cryo-EM structure, […] Å",
  "type": "binding",
  "data": [
    {"smiles": "CC[C@H]1c2cc3[nH]c4c(c3C)C(=O)[C@H](C(=O)OC)c4c3nc(cc4[nH]c(cc(n2)[C@@H]1C)c(C(C)=O)c4C)[C@@H](C)[C@@H]3CCC(=O)OC/C=C(\\C)CCC[C@H](C)CCC[C@H](C)CCCC(C)C", "note": "[BPhe a]", "values": [
      {"measurement": "cryo-EM structure, 2.24 Å", "result": "BPhe a, magenta sticks"}
    ]}
  ]
}
